Molecules are shown by their SMILES. Several values for one entry are separate records, joined by “and”; a condition that tells them apart may be missing. Equal entries are not always repeated. Toxic doses and inconclusive results are not listed.

For the assay, the system named is BDF1 mice, L1210 6-MP/6-TG resistant leukemia ip, survival T/C. Briefly: NCI In Vivo Anticancer Drug Screen. Data for tumor model L1210 Leukemia resistant to 6-MP and 6-Thioguanine; NSC 755, NSC 752 (intraperitoneal) in B6D2F1 (BDF1) mice. Particulars: endpoint: mean survival time, higher = longer survival. As to the method: The antitumor activity of compounds was measured in mice bearing transplantable tumors. Survival or tumor size were measured and the results are expressed as the measurement made in the treated group (T) divided by the measurement made in the vehicle treated control group (C). The tumor model used in this assay is L1210 Leukemia resistant to 6-MP and 6-Thioguanine; NSC 755, NSC 752 (intraperitoneal) in B6D2F1 (BDF1) mice

Setting [1] is: dose: 13.0 mg/kg/injection, schedule: Q02DX010 (ip), vehicle: carboxymethylcellulose (CMC).
Where [2] appears, read: dose: 20.0 mg/kg/injection, schedule: Q01DX015 (ip), vehicle: carboxymethylcellulose (CMC).
Setting [3] is: dose: 30.0 mg/kg/injection, schedule: Q02DX010 (ip), vehicle: carboxymethylcellulose (CMC).
The mark [4] stands for this setting: dose: 45.0 mg/kg/injection, schedule: Q02DX010 (ip), vehicle: carboxymethylcellulose (CMC).
[5] abbreviates: dose: 25.0 mg/kg/injection, schedule: Q01DX Z (ip), vehicle: carboxymethylcellulose (CMC).
[6] abbreviates: dose: 50.0 mg/kg/injection, schedule: Q01DX Z (ip), vehicle: carboxymethylcellulose (CMC).
The mark [7] stands for this setting: dose: 100.0 mg/kg/injection, schedule: Q01DX Z (ip), vehicle: carboxymethylcellulose (CMC).
Where [8] appears, read: dose: 200.0 mg/kg/injection, schedule: Q01DX Z (ip), vehicle: carboxymethylcellulose (CMC).

For `O=CN(O)CC(=O)O`, the T/C reads like this: (dose: 62.0 mg/kg/injection, schedule: Q01DX Z (ip), vehicle: saline) 100 % of control; (dose: 125.0 mg/kg/injection, schedule: Q01DX Z (ip), vehicle: saline) 112 % of control; (dose: 250.0 mg/kg/injection, schedule: Q01DX Z (ip), vehicle: saline) 107 % of control; (dose: 500.0 mg/kg/injection, schedule: Q01DX Z (ip), vehicle: saline) 105 % of control.
Take `O=NN(CCCl)C(=O)NCCCl`: the T/C runs as follows: (dose: 2.0 mg/kg/injection, schedule: Q01DX015 (ip), vehicle: saline) 166 % of control and 181 % of control and 196 % of control; (dose: 2.6 mg/kg/injection, schedule: Q01DX015 (ip), vehicle: saline) 168 % of control; (dose: 6.0 mg/kg/injection, schedule: Q01DX015 (ip), vehicle: saline) 156 % of control; (dose: 8.0 mg/kg/injection, schedule: Q01DX015 (ip), vehicle: saline) 151 % of control and 157 % of control and 185 % of control; (dose: 9.0 mg/kg/injection, schedule: Q01DX015 (ip), vehicle: saline) 164 % of control; (dose: 13.5 mg/kg/injection, schedule: Q01DX015 (ip), vehicle: saline) 123 % of control.
With `CN(Cc1cnc2nc(N)nc(N)c2n1)c1c(Cl)cc(C(=O)NC(CCC(=O)O)C(=O)O)cc1Cl` (centres undefined), the T/C reads like this: (dose: 0.31 mg/kg/injection, schedule: Q01DX015 (ip), vehicle: carboxymethylcellulose (CMC)) 154 % of control; (dose: 0.62 mg/kg/injection, schedule: Q01DX015 (ip), vehicle: carboxymethylcellulose (CMC)) 238 % of control; (dose: 1.25 mg/kg/injection, schedule: Q01DX015 (ip), vehicle: carboxymethylcellulose (CMC)) 307 % of control; (dose: 2.5 mg/kg/injection, schedule: Q01DX015 (ip), vehicle: carboxymethylcellulose (CMC)) 175 % of control and 320 % of control; (dose: 5.0 mg/kg/injection, schedule: Q01DX015 (ip), vehicle: carboxymethylcellulose (CMC)) 219 % of control and 330 % of control; (dose: 9.0 mg/kg/injection, schedule: Q02DX010 (ip), vehicle: carboxymethylcellulose (CMC)) 348 % of control. In addition, the T/C reads like this: (dose: 10.0 mg/kg/injection, schedule: Q01DX015 (ip), vehicle: carboxymethylcellulose (CMC)) 162 % of control; (dose: 13.0 mg/kg/injection, schedule: Q01DX015 (ip), vehicle: carboxymethylcellulose (CMC)) 293 % of control; under setting [1], 348 % of control; under setting [2], 262 % of control; (dose: 20.0 mg/kg/injection, schedule: Q02DX010 (ip), vehicle: carboxymethylcellulose (CMC)) 308 % of control; (dose: 30.0 mg/kg/injection, schedule: Q01DX015 (ip), vehicle: carboxymethylcellulose (CMC)) 168 % of control and 181 % of control. Also, the T/C is, setting by setting: under setting [3], 310 % of control; (dose: 45.0 mg/kg/injection, schedule: Q01DX015 (ip), vehicle: carboxymethylcellulose (CMC)) 269 % of control; under setting [4], 343 % of control; (dose: 67.0 mg/kg/injection, schedule: Q02DX010 (ip), vehicle: carboxymethylcellulose (CMC)) 348 % of control; (dose: 67.5 mg/kg/injection, schedule: Q01DX015 (ip), vehicle: carboxymethylcellulose (CMC)) 205 % of control; (dose: 80.0 mg/kg/injection, schedule: Q01DX015 (ip), vehicle: carboxymethylcellulose (CMC)) 116 % of control. In addition, the T/C is, setting by setting: (dose: 80.0 mg/kg/injection, schedule: Q01DX015 (ip), vehicle: saline) 194 % of control; (dose: 100.0 mg/kg/injection, schedule: Q01DX015 (ip), vehicle: carboxymethylcellulose (CMC)) 121 % of control; (dose: 100.0 mg/kg/injection, schedule: Q01DX015 (ip), vehicle: saline) 233 % of control; (dose: 120.0 mg/kg/injection, schedule: Q01DX015 (ip), vehicle: carboxymethylcellulose (CMC)) 104 % of control; (dose: 120.0 mg/kg/injection, schedule: Q01DX015 (ip), vehicle: saline) 112 % of control; (dose: 75.0 micrograms/kg/injection, schedule: Q01DX015 (ip), vehicle: carboxymethylcellulose (CMC)) 307 % of control. The T/C runs as follows: (dose: 150.0 micrograms/kg/injection, schedule: Q01DX015 (ip), vehicle: carboxymethylcellulose (CMC)) 300 % of control; (dose: 310.0 micrograms/kg/injection, schedule: Q01DX015 (ip), vehicle: carboxymethylcellulose (CMC)) 293 % of control; (dose: 620.0 micrograms/kg/injection, schedule: Q01DX015 (ip), vehicle: carboxymethylcellulose (CMC)) 313 % of control.
Regarding `O=C(Nc1ccc(C2=NCCN2)cc1)c1ccc(C(=O)Nc2ccc(C3=NCCN3)cc2)c(Cl)c1`, the T/C is 110 % of control (dose: 1.7 mg/kg/injection, schedule: Q01DX015 (ip), vehicle: carboxymethylcellulose (CMC)); 107 % of control (dose: 2.6 mg/kg/injection, schedule: Q01DX015 (ip), vehicle: carboxymethylcellulose (CMC)); 97 % of control (dose: 3.8 mg/kg/injection, schedule: Q01DX015 (ip), vehicle: carboxymethylcellulose (CMC)); 121 % of control (dose: 4.4 mg/kg/injection, schedule: Q01DX015 (ip), vehicle: carboxymethylcellulose (CMC)); 89 % of control (dose: 5.3 mg/kg/injection, schedule: Q01DX015 (ip), vehicle: carboxymethylcellulose (CMC)); 253 % of control (dose: 6.5 mg/kg/injection, schedule: Q01DX015 (ip), vehicle: carboxymethylcellulose (CMC)). The T/C (dose: 7.0 mg/kg/injection, schedule: Q01DX015 (ip), vehicle: carboxymethylcellulose (CMC)) is 108 % of control; the T/C (dose: 8.0 mg/kg/injection, schedule: Q01DX015 (ip), vehicle: carboxymethylcellulose (CMC)) was 122 % of control; the T/C (dose: 8.7 mg/kg/injection, schedule: Q01DX015 (ip), vehicle: carboxymethylcellulose (CMC)) was 157 % of control; the T/C (dose: 12.0 mg/kg/injection, schedule: Q01DX015 (ip), vehicle: carboxymethylcellulose (CMC)) was 90 % of control; the T/C under setting [1] is 191 % of control; the T/C (dose: 15.0 mg/kg/injection, schedule: Q01DX010 (ip), vehicle: carboxymethylcellulose (CMC)) was 170 % of control. Also, the T/C reads like this: (dose: 15.0 mg/kg/injection, schedule: Q01DX015 (ip), vehicle: carboxymethylcellulose (CMC)) 168 % of control; (dose: 18.0 mg/kg/injection, schedule: Q01DX015 (ip), vehicle: carboxymethylcellulose (CMC)) 108 % of control; (dose: 20.0 mg/kg/injection, schedule: Q01DX010 (ip), vehicle: carboxymethylcellulose (CMC)) 181 % of control; under setting [2], 166 % of control and 187 % of control; (dose: 22.5 mg/kg/injection, schedule: Q01DX015 (ip), vehicle: carboxymethylcellulose (CMC)) 154 % of control; (dose: 26.0 mg/kg/injection, schedule: Q01DX015 (ip), vehicle: carboxymethylcellulose (CMC)) 214 % of control. The T/C (dose: 27.0 mg/kg/injection, schedule: Q01DX015 (ip), vehicle: carboxymethylcellulose (CMC)) was 90 % of control; the T/C under setting [3] was 223 % of control; the T/C under setting [4] was 188 % of control.
Regarding `Cn1c(O)c(N=NC(N)=S)c2ccccc21`, the T/C reads like this: under setting [5], 100 % of control; under setting [6], 105 % of control; under setting [7], 104 % of control; under setting [8], 88 % of control.
Regarding `CS(=O)(=O)OCC(O)C(O)COS(C)(=O)=O` (centres undefined), the T/C (dose: 62.0 mg/kg/injection, schedule: Q01DX Z (ip), vehicle: carboxymethylcellulose (CMC)) was 103 % of control; the T/C (dose: 125.0 mg/kg/injection, schedule: Q01DX Z (ip), vehicle: carboxymethylcellulose (CMC)) was 101 % of control; the T/C (dose: 250.0 mg/kg/injection, schedule: Q01DX Z (ip), vehicle: carboxymethylcellulose (CMC)) is 122 % of control.
With `Clc1ncnc2nc[nH]c12`, the T/C is, setting by setting: (dose: 12.5 mg/kg/injection, schedule: Q01DX Z (ip), vehicle: carboxymethylcellulose (CMC)) 97 % of control; under setting [5], 93 % of control; under setting [6], 92 % of control and 104 % of control; under setting [7], 90 % of control; (dose: 200.0 mg/kg/injection, schedule: Q01DX001 (ip), vehicle: carboxymethylcellulose (CMC)) 99 % of control and 104 % of control; under setting [8], 90 % of control. Moreover, the T/C is, setting by setting: (dose: 267.0 mg/kg/injection, schedule: Q01DX001 (ip), vehicle: carboxymethylcellulose (CMC)) 102 % of control and 107 % of control; (dose: 300.0 mg/kg/injection, schedule: Q01DX Z (ip), vehicle: carboxymethylcellulose (CMC)) 88 % of control; (dose: 400.0 mg/kg/injection, schedule: Q01DX001 (ip), vehicle: carboxymethylcellulose (CMC)) 100 % of control and 102 % of control.

The values above are taken from PubChem BioAssay AID308 (DTP/NCI, 2004).
